PubChem BioAssay AID330 (DTP/NCI, 2004)
Several values for one entry are separate records, joined by “and”; a condition that tells them apart may be missing. Equal values may be shown once. Inconclusive results and toxic doses are left out. The calls were made as follows: active = survival T/C of 150% or more; inactive = T/C below 125% in these data.

System: P388 leukemia ip, CD2F1 mice, survival T/C
Assay: NCI In Vivo Anticancer Drug Screen. Data for tumor model P388 Leukemia (intraperitoneal) in CD2F1 (CDF1) mice
Conditions: endpoint: median survival time, higher = longer survival
Outline: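 Mice carrying the transplanted tumor received test compound or vehicle. Survival was recorded in each group, and the value is the treated-group measurement divided by that of the vehicle-treated control group.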

[1] = dose: 50.0 mg/kg/injection, schedule: Q01DX005 (ip), vehicle: saline with Tween-80
[2] = dose: 100.0 mg/kg/injection, schedule: Q01DX005 (ip), vehicle: saline with Tween-80
[3] = dose: 200.0 mg/kg/injection, schedule: Q01DX005 (ip), vehicle: saline with Tween-80
[4] = dose: 50.0 mg/kg/injection, schedule: Q01DX009 (ip), vehicle: Klucel (hydroxypropylcellulose) (HPC)
[5] = dose: 100.0 mg/kg/injection, schedule: Q01DX009 (ip), vehicle: Klucel (hydroxypropylcellulose) (HPC)
[6] = dose: 200.0 mg/kg/injection, schedule: Q01DX009 (ip), vehicle: Klucel (hydroxypropylcellulose) (HPC)
[7] = dose: 12.5 mg/kg/injection, schedule: Q04DX003 (ip), vehicle: Klucel (hydroxypropylcellulose) (HPC)
[8] = dose: 25.0 mg/kg/injection, schedule: Q04DX003 (ip), vehicle: Klucel (hydroxypropylcellulose) (HPC)
[9] = dose: 50.0 mg/kg/injection, schedule: Q04DX003 (ip), vehicle: Klucel (hydroxypropylcellulose) (HPC)
[10] = dose: 100.0 mg/kg/injection, schedule: Q04DX003 (ip), vehicle: Klucel (hydroxypropylcellulose) (HPC)
[11] = dose: 25.0 mg/kg/injection, schedule: Q01DX009 (ip), vehicle: Klucel (hydroxypropylcellulose) (HPC)

Measured: T/C

CCOc1cc(CC[N+](C)(C)C)cc2c1ccc1ccc(OC)c(OC)c12
inactive: dose: 6.25 mg/kg/injection, schedule: Q01DX005 (ip), vehicle: saline with Tween-80 99 % of control | dose: 12.5 mg/kg/injection, schedule: Q01DX005 (ip), vehicle: saline with Tween-80 100 % of control | dose: 25.0 mg/kg/injection, schedule: Q01DX005 (ip), vehicle: saline with Tween-80 96 % of control

O=[N+]([O-])c1ccc(/C=C/S(=O)(=O)Cc2ccccc2)cc1
inactive: [1] 105 % of control | [2] 100 % of control | [3] 96 % of control

O=C(O)c1ccccc1Oc1ccccc1C(=O)O
inactive: dose: 100.0 mg/kg/injection, schedule: Q04DX003 (ip), vehicle: saline 100 % of control | dose: 200.0 mg/kg/injection, schedule: Q04DX003 (ip), vehicle: saline 100 % of control | dose: 400.0 mg/kg/injection, schedule: Q04DX003 (ip), vehicle: saline 100 % of control

CCO/C=C1/N=C(c2cc([N+](=O)[O-])cc([N+](=O)[O-])c2C)OC1=O
inactive: dose: 60.0 mg/kg/injection, schedule: Q01DX005 (ip), vehicle: saline + Tween-80 + alcohol 93 % of control | dose: 120.0 mg/kg/injection, schedule: Q01DX005 (ip), vehicle: saline + Tween-80 + alcohol 94 % of control | dose: 240.0 mg/kg/injection, schedule: Q01DX005 (ip), vehicle: saline + Tween-80 + alcohol 88 % of control

C1CN(/N=N/c2nn[nH]n2)CCO1
inactive: [4] 117 % of control | [5] 117 % of control | [6] 106 % of control

C=C1C(=O)O[C@@H]2/C=C(\C)CC/C=C(/C)CC[C@@H]12
inactive: [7] 100 % of control | [8] 107 % of control | [9] 100 % of control | [10] 113 % of control

CC(=O)[O-].[NH2-].[NH2-].[NH2-].[NH2-].[NH2-].[O-][Cl+3]([O-])([O-])O.[Ru+8]
inactive: dose: 3.13 mg/kg/injection, schedule: Q04DX003 (ip), vehicle: saline 118 % of control | dose: 3.13 mg/kg/injection, schedule: Q04DX003 (ip), vehicle: water 99 % of control | dose: 6.25 mg/kg/injection, schedule: Q04DX003 (ip), vehicle: saline 113 % of control | dose: 6.25 mg/kg/injection, schedule: Q04DX003 (ip), vehicle: water 118 % of control | dose: 12.5 mg/kg/injection, schedule: Q04DX003 (ip), vehicle: saline 111 % of control | dose: 12.5 mg/kg/injection, schedule: Q04DX003 (ip), vehicle: water 120 % of control

CC(=O)OC(C(=O)O)N1C(=O)C2C3C=CC(C2C1=O)C1C2C(=O)N(C(OC(C)=O)C(=O)O)C(=O)C2C31 (configuration not stated)
inactive: dose: 25.0 mg/kg/injection, schedule: Q01DX009 (ip), vehicle: water 103 % of control | dose: 50.0 mg/kg/injection, schedule: Q01DX009 (ip), vehicle: water 110 % of control | dose: 100.0 mg/kg/injection, schedule: Q01DX009 (ip), vehicle: water 110 % of control and 113 % of control and 123 % of control

Cc1ccc(S(=O)(=O)CC(=O)c2ccccc2)cc1
inactive: [5] 108 % of control | [6] 108 % of control | dose: 400.0 mg/kg/injection, schedule: Q01DX009 (ip), vehicle: Klucel (hydroxypropylcellulose) (HPC) 104 % of control

CC1(C)CO/C(=C/C(=O)c2ccccc2)N1C(=O)c1ccccc1
inactive: dose: 60.0 mg/kg/injection, schedule: Q01DX005 (ip), vehicle: saline with Tween-80 99 % of control | dose: 120.0 mg/kg/injection, schedule: Q01DX005 (ip), vehicle: saline with Tween-80 90 % of control

CN(C)C1=CC(=O)c2ccccc2C12CO2 (configuration not stated)
inactive: dose: 100.0 mg/kg/injection, schedule: Q01DX001 (ip), vehicle: saline with Tween-80 106 % of control | dose: 200.0 mg/kg/injection, schedule: Q01DX001 (ip), vehicle: saline with Tween-80 100 % of control

CC(C)=NNC1=NC(C)(C)P(=O)(N2CCCC2C(=O)O)S1 (configuration not stated)
inactive: dose: 60.0 mg/kg/injection, schedule: Q01DX005 (ip), vehicle: saline 98 % of control | dose: 120.0 mg/kg/injection, schedule: Q01DX005 (ip), vehicle: saline 104 % of control | dose: 240.0 mg/kg/injection, schedule: Q01DX005 (ip), vehicle: saline 102 % of control

c1cncc(-c2n[nH]c3c2CCc2ccccc2-3)c1
inactive: dose: 12.5 mg/kg/injection, schedule: Q01DX009 (ip), vehicle: other 121 % of control | dose: 37.5 mg/kg/injection, schedule: Q01DX009 (ip), vehicle: other 86 % of control | dose: 50.0 mg/kg/injection, schedule: Q01DX009 (ip), vehicle: other 121 % of control | dose: 75.0 mg/kg/injection, schedule: Q01DX009 (ip), vehicle: other 113 % of control | dose: 100.0 mg/kg/injection, schedule: Q01DX009 (ip), vehicle: other 111 % of control | dose: 150.0 mg/kg/injection, schedule: Q01DX009 (ip), vehicle: other 100 % of control | dose: 200.0 mg/kg/injection, schedule: Q01DX009 (ip), vehicle: other 101 % of control | dose: 300.0 mg/kg/injection, schedule: Q01DX009 (ip), vehicle: other 104 % of control

Cc1cc(=O)n(C)c2ccc(N)cc12
inactive: [11] 101 % of control | [4] 100 % of control | [5] 101 % of control

OCCCCP12(OC(C(F)(F)F)(C(F)(F)F)c3ccccc31)OC(C(F)(F)F)(C(F)(F)F)c1ccccc12
inactive: [4] 102 % of control | [5] 100 % of control | [6] 102 % of control

O=[As](O)(O)c1ccc(Nc2nc(Cl)nc(Cl)n2)cc1
inactive: dose: 12.5 mg/kg/injection, schedule: Q01DX009 (ip), vehicle: Klucel (hydroxypropylcellulose) (HPC) 96 % of control | [11] 104 % of control

CCCOc1ccc(C(C)c2cc3c(cc2OC)OCO3)cc1 (configuration not stated)
inactive: dose: 25.0 mg/kg/injection, schedule: Q01DX005 (ip), vehicle: Klucel (hydroxypropylcellulose) (HPC) 100 % of control | dose: 50.0 mg/kg/injection, schedule: Q01DX005 (ip), vehicle: Klucel (hydroxypropylcellulose) (HPC) 103 % of control | dose: 100.0 mg/kg/injection, schedule: Q01DX005 (ip), vehicle: Klucel (hydroxypropylcellulose) (HPC) 103 % of control | dose: 200.0 mg/kg/injection, schedule: Q01DX005 (ip), vehicle: Klucel (hydroxypropylcellulose) (HPC) 98 % of control

NC(=O)CSCC(=O)c1ccccc1
inactive: [1] 102 % of control | [2] 107 % of control | [3] 102 % of control

Cc1ccc(NCCCC2CCCN3CCCCC23)c2c(=O)c3ccccc3sc12 (configuration not stated)
inactive: dose: 12.5 mg/kg/injection, schedule: Q01DX005 (ip), vehicle: distilled water + Tween-80 100 % of control | dose: 25.0 mg/kg/injection, schedule: Q01DX005 (ip), vehicle: distilled water + Tween-80 91 % of control | dose: 50.0 mg/kg/injection, schedule: Q01DX005 (ip), vehicle: distilled water + Tween-80 90 % of control

Cc1cc(=O)[nH]c2c3sc4ccccc4c(=O)c3c3ccccc3c12
inactive: [7] 99 % of control | [8] 99 % of control | [9] 95 % of control | [10] 98 % of control

CSC(=S)/N=c1/sccn1C
inactive: dose: 25.0 mg/kg/injection, schedule: Q04DX002 (ip), vehicle: saline with Tween-80 100 % of control | dose: 50.0 mg/kg/injection, schedule: Q04DX002 (ip), vehicle: saline with Tween-80 100 % of control | dose: 100.0 mg/kg/injection, schedule: Q04DX002 (ip), vehicle: saline with Tween-80 99 % of control

CCCCCCC(=O)/C=C/c1cc(OC)c(OC)cc1OC
inactive: dose: 50.0 mg/kg/injection, schedule: Q01DX009 (ip), vehicle: saline with Tween-80 100 % of control | dose: 100.0 mg/kg/injection, schedule: Q01DX009 (ip), vehicle: saline with Tween-80 94 % of control | dose: 200.0 mg/kg/injection, schedule: Q01DX009 (ip), vehicle: saline with Tween-80 96 % of control

O=S(=O)(OC1=CC2c3ccccc3C1c1ccccc12)C(F)(F)F
inactive: dose: 50.0 mg/kg/injection, schedule: Q01DX005 (ip), vehicle: saline + Tween-80 + alcohol 100 % of control | dose: 100.0 mg/kg/injection, schedule: Q01DX005 (ip), vehicle: saline + Tween-80 + alcohol 100 % of control | dose: 200.0 mg/kg/injection, schedule: Q01DX005 (ip), vehicle: saline + Tween-80 + alcohol 103 % of control
